# Where a name gives a salt, the structure may show the parent alone. Read-outs that look alike come from different tables or passages of the source.
# Tests used:
# [1] = test system: P. falciparum 3D7 parasites; experiment: P. falciparum growth inhibition assay, 2-cycle (120 h treatment), delayed-death screen and dose-response; type: cell-based, Plasmodium falciparum; conditions: for activity at 2 µg/mL: Plasmodium falciparum
# [2] = test system: T. gondii RH strain (RH-Tub-eYFP) tachyzoites; experiment: microbe, parasite or virus in culture; type: cell-based, Toxoplasma gondii; conditions: 72 h, 72 h; for percent parasite growth at 2 µg/mL: Toxoplasma gondii
# [3] = test system: P. falciparum 3D7 parasites; experiment: P. falciparum growth inhibition assay, 1-cycle (72 h treatment), SYBR DNA staining (library screen at 2 μg/mL and dose-response); type: cell-based, Plasmodium falciparum; conditions: for activity at 2 µg/mL: Plasmodium falciparum
# [4] = 3D7, 120 h, library screen at 2 μg/mL, 120 h, % growth, replicate 1, read-out: Pf_120h_%Growth_Rep1
# [5] = 3D7, 120 h, library screen at 2 μg/mL, 120 h, % growth, replicate 2, read-out: Pf_120h_%Growth_Rep2
# [6] = library screen at 2 μg/mL, % growth, replicate 1, read-out: Tg_72h_%Growth_Rep1
# [7] = library screen at 2 μg/mL, % growth, replicate 2, read-out: Tg_72h_%Growth_Rep2
# [8] = 3D7, 72 h, library screen at 2 μg/mL, 72 h, % growth, replicate 1, read-out: Pf_72h_%Growth_Rep1
# [9] = 3D7, 72 h, library screen at 2 μg/mL, 72 h, % growth, replicate 2, read-out: Pf_72h_%Growth_Rep2
# [10] = P. falciparum 3D7, 120 h, parasite screen at 2 μg/mL, % growth, replicate 1
# [11] = P. falciparum 3D7, 120 h, parasite screen at 2 μg/mL, % growth, replicate 2
# [12] = T. gondii, parasite screen at 2 μg/mL, % growth, replicate 1
# [13] = T. gondii, parasite screen at 2 μg/mL, % growth, replicate 2
# [14] = P. falciparum 3D7, 72 h, parasite screen at 2 μg/mL, % growth, replicate 1
# [15] = P. falciparum 3D7, 72 h, parasite screen at 2 μg/mL, % growth, replicate 2
# [16] = 3D7, 120 h, P. falciparum, 120 h, screen at 2 μg/mL, replicate 1, read-out: Pf_120h_%Growth_Rep1
# [17] = 3D7, 120 h, P. falciparum, 120 h, screen at 2 μg/mL, replicate 2, read-out: Pf_120h_%Growth_Rep2
# [18] = T. gondii, screen at 2 μg/mL, replicate 1, read-out: Tg_72h_%Growth_Rep1
# [19] = T. gondii, screen at 2 μg/mL, replicate 2, read-out: Tg_72h_%Growth_Rep2
# [20] = 3D7, 72 h, P. falciparum, 72 h, screen at 2 μg/mL, replicate 1, read-out: Pf_72h_%Growth_Rep1
# [21] = 3D7, 72 h, P. falciparum, 72 h, screen at 2 μg/mL, replicate 2, read-out: Pf_72h_%Growth_Rep2
# [22] = P. falciparum, 120 h, parasite screen 2 μg/mL, % growth, replicate 1
# [23] = P. falciparum, 120 h, parasite screen 2 μg/mL, % growth, replicate 2
# [24] = T. gondii, parasite screen 2 μg/mL, % growth, replicate 1
# [25] = T. gondii, parasite screen 2 μg/mL, % growth, replicate 2
# [26] = P. falciparum, 72 h, parasite screen 2 μg/mL, % growth, replicate 1
# [27] = P. falciparum, 72 h, parasite screen 2 μg/mL, % growth, replicate 2
# [28] = library screen at 2 μg/mL, 120 h, % growth, replicate 1
# [29] = library screen at 2 μg/mL, 120 h, % growth, replicate 2
# [30] = library screen at 2 μg/mL, % growth, replicate 1
# [31] = library screen at 2 μg/mL, % growth, replicate 2
# [32] = library screen at 2 μg/mL, 72 h, % growth, replicate 1
# [33] = library screen at 2 μg/mL, 72 h, % growth, replicate 2
structure (smiles),measurement,setting,value
O=c1cccc2n1C[C@H]1C[C@@H]2CN2CCCC[C@H]12 [Anagyrine],activity at 2 µg/mL,[1]; [4],106%
same,activity at 2 µg/mL,[1]; [5],103%
same,percent parasite growth at 2 µg/mL,[2]; [6],136%
same,percent parasite growth at 2 µg/mL,[2]; [7],82.1%
same,activity at 2 µg/mL,[3]; [8],88.8%
same,activity at 2 µg/mL,[3]; [9],124%
CC(=O)O[C@H]1C[C@@]2(C)[C@@H](C[C@@H](O)[C@H]3[C@@]4(C)CC[C@@H](O)[C@@H](C)[C@@H]4CC[C@@]32C)/C1=C(\CCC=C(C)C)C(=O)O [Fusidate sodium],activity at 2 µg/mL,[1]; [4],91.2%
same,activity at 2 µg/mL,[1]; [5],139%
same,percent parasite growth at 2 µg/mL,[2]; [6],111%
same,percent parasite growth at 2 µg/mL,[2]; [7],91.8%
same,activity at 2 µg/mL,[3]; [8],87.5%
same,activity at 2 µg/mL,[3]; [9],96%
CCCCCCCC(=O)N[C@H]1CCOC1=O [BIA-O1496],Pf_120h_%Growth_Rep1,[1]; [10],82.04%
same,Pf_120h_%Growth_Rep2,[1]; [11],138.56%
same,Tg_72h_%Growth_Rep1,[2]; [12],127.37%
same,Tg_72h_%Growth_Rep2,[2]; [13],91.78%
same,Pf_72h_%Growth_Rep1,[3]; [14],81.24%
same,Pf_72h_%Growth_Rep2,[3]; [15],83.86%
CCCCCC(O)C1C(=O)OC(C)C(O)C=CC=CC=CC=CC=C(C)C(O)C(O)C(O)CC(O)CC(O)CC(O)CC(O)CC1O (stereo not drawn) [BIA-L1613],Pf_120h_%Growth_Rep1,"[1]; P. falciparum 3D7, 120 h, library screen at 2 μg/mL, % growth, replicate 1",95.83%
same,Pf_120h_%Growth_Rep2,"[1]; P. falciparum 3D7, 120 h, library screen at 2 μg/mL, % growth, replicate 2",112.04%
same,Tg_72h_%Growth_Rep1,"[2]; T. gondii RH, library screen at 2 μg/mL, % growth, replicate 1",108.01%
same,Tg_72h_%Growth_Rep2,"[2]; T. gondii RH, library screen at 2 μg/mL, % growth, replicate 2",85.53%
same,Pf_72h_%Growth_Rep1,"[3]; P. falciparum 3D7, 72 h, library screen at 2 μg/mL, % growth, replicate 1",78.48%
same,Pf_72h_%Growth_Rep2,"[3]; P. falciparum 3D7, 72 h, library screen at 2 μg/mL, % growth, replicate 2",58.30%
CC(C)C[C@@H]1NC(=O)[C@@H]2CCCN2C1=O [Cyclo(L-Leu-L-Pro)],Pf_120h_%Growth_Rep1,"[1]; P. falciparum, 120 h, screen at 2 μg/mL, replicate 1",82.10%
same,Pf_120h_%Growth_Rep2,"[1]; P. falciparum, 120 h, screen at 2 μg/mL, replicate 2",83.93%
same,Tg_72h_%Growth_Rep1,"[2]; T. gondii, screen at 2 μg/mL, replicate 1",124.64%
same,Tg_72h_%Growth_Rep2,"[2]; T. gondii, screen at 2 μg/mL, replicate 2",91.02%
same,Pf_72h_%Growth_Rep1,"[3]; P. falciparum, 72 h, screen at 2 μg/mL, replicate 1",83.89%
same,Pf_72h_%Growth_Rep2,"[3]; P. falciparum, 72 h, screen at 2 μg/mL, replicate 2",81.36%
CN1C(=O)[C@@]23C[C@]4([C@]56C[C@@]78SS[C@@](CO)(C(=O)N7[C@H]5Nc5ccccc56)N(C)C8=O)c5ccccc5N[C@@H]4N2C(=O)[C@]1(CO)SS3 [Chaetocin],activity at 2 µg/mL,[1]; [16],16.4%
same,activity at 2 µg/mL,[1]; [17],23.8%
same,percent parasite growth at 2 µg/mL,[2]; [18],0.84%
same,percent parasite growth at 2 µg/mL,[2]; [19],2.33%
same,activity at 2 µg/mL,[3]; [20],10.9%
same,activity at 2 µg/mL,[3]; [21],11.2%
COC(=O)[C@H]1NC(=O)[C@H]2NC(=O)[C@H](NC(=O)[C@@H]3NC(=O)[C@H]4NC(=O)[C@H](NC(=O)[C@H](N)c5ccc(O)c(c5)Oc5cc4cc(O)c5C)[C@H](O)c4ccc(cc4)Oc4cc3cc(c4O[C@@H]3O[C@H](COC4O[C@@H](C)[C@H](O)[C@@H](O)[C@H]4O)[C@@H](O)[C@H](O)[C@H]3O[C@@H]3O[C@@H](CO)[C@H](O)[C@@H](O)[C@H]3O[C@@H]3OC[C@@H](O)[C@@H](O)[C@@H]3O)Oc3ccc(cc3)[C@H]2O[C@@H]2C[C@@H](N)[C@@H](O)[C@H](C)O2)c2ccc(O)c(c2)-c2c(O[C@@H]3O[C@H](CO)[C@@H](O)[C@H](O)[C@@H]3O)cc(O)cc21 (stereo partly drawn) [Ristocetin A sulfate],Pf_120h_%Growth_Rep1,[1]; [22],82.07%
same,Pf_120h_%Growth_Rep2,[1]; [23],109.30%
same,Tg_72h_%Growth_Rep1,[2]; [24],119.41%
same,Tg_72h_%Growth_Rep2,[2]; [25],85.51%
same,Pf_72h_%Growth_Rep1,[3]; [26],85.98%
same,Pf_72h_%Growth_Rep2,[3]; [27],111.61%
CC1=C2C(=CO[C@H](C)[C@H]2C)C(O)=C(C(=O)O)C1=O [Citrinin],activity at 2 µg/mL,[1]; [16],138%
same,activity at 2 µg/mL,[1]; [17],82.5%
same,percent parasite growth at 2 µg/mL,[2]; [18],87.8%
same,percent parasite growth at 2 µg/mL,[2]; [19],82%
same,activity at 2 µg/mL,[3]; [20],89.1%
same,activity at 2 µg/mL,[3]; [21],84%
CO[C@@]12[C@H](COC(N)=O)C3=C(C(=O)C(C)=C(N)C3=O)N1C[C@@H]1N[C@@H]12 [BIA-M1183],Pf_120h_%Growth_Rep1,[1]; [10],92.29%
same,Pf_120h_%Growth_Rep2,[1]; [11],100.91%
same,Tg_72h_%Growth_Rep1,[2]; [12],127.95%
same,Tg_72h_%Growth_Rep2,[2]; [13],82.68%
same,Pf_72h_%Growth_Rep1,[3]; [14],82.66%
same,Pf_72h_%Growth_Rep2,[3]; [15],112.82%
COc1c(O)c2c(=O)cc3c4c5c(cc(=O)c6c(O)c(OC)c(C[C@H](C)OC(C)=O)c(c(c1C[C@H](C)OC(C)=O)c24)c65)OCO3 [Diacetylcercosporin],Pf_120h_%Growth_Rep1,[1]; [28],-5.54%
same,Pf_120h_%Growth_Rep2,[1]; [29],6.35%
same,Tg_72h_%Growth_Rep1,[2]; [30],4.49%
same,Tg_72h_%Growth_Rep2,[2]; [31],14.87%
same,Pf_72h_%Growth_Rep1,[3]; [32],2.60%
same,Pf_72h_%Growth_Rep2,[3]; [33],15.99%
CC(/C=C/C1CC=CC(=O)O1)=C\C(C)C/C=C/C(C)=C/C(C)C(=O)C(C)C(O)C(C)C/C(C)=C/C(=O)O (stereo not drawn) [Anguinomycin A],Pf_120h_%Growth_Rep1,[1]; [28],145.35%
same,Pf_120h_%Growth_Rep2,[1]; [29],79.09%
same,Tg_72h_%Growth_Rep1,[2]; [30],87.81%
same,Tg_72h_%Growth_Rep2,[2]; [31],87.77%
same,Pf_72h_%Growth_Rep1,[3]; [32],77.34%
same,Pf_72h_%Growth_Rep2,[3]; [33],87.20%
"CC(=O)NCCc1c[nH]c2ccc(O)cc12 [Acetylserotonin, N-]",Pf_120h_%Growth_Rep1,[1]; [28],81.51%
same,Pf_120h_%Growth_Rep2,[1]; [29],80.80%
same,Tg_72h_%Growth_Rep1,[2]; [30],128.90%
same,Tg_72h_%Growth_Rep2,[2]; [31],97.07%
same,Pf_72h_%Growth_Rep1,[3]; [32],83.62%
same,Pf_72h_%Growth_Rep2,[3]; [33],79.72%
COC(=O)[C@]1(Cc2ccc3c(c2)C[C@H](O)C(C)(C)O3)OC(=O)C(O)=C1c1ccc(O)cc1 [Butyrolactone V],activity at 2 µg/mL,"[1]; 3D7, P. falciparum, 120 h, screen at 2 μg/mL, replicate 1, read-out: Pf_120h_%Growth_Rep1",100%
same,activity at 2 µg/mL,"[1]; 3D7, P. falciparum, 120 h, screen at 2 μg/mL, replicate 2, read-out: Pf_120h_%Growth_Rep2",94.5%
same,percent parasite growth at 2 µg/mL,[2]; [18],130%
same,percent parasite growth at 2 µg/mL,[2]; [19],90%
same,activity at 2 µg/mL,"[3]; 3D7, P. falciparum, 72 h, screen at 2 μg/mL, replicate 1, read-out: Pf_72h_%Growth_Rep1",83.9%
same,activity at 2 µg/mL,"[3]; 3D7, P. falciparum, 72 h, screen at 2 μg/mL, replicate 2, read-out: Pf_72h_%Growth_Rep2",90.6%
CC[C@H]1OC(=O)[C@H](C)[C@@H](O[C@H]2C[C@@](C)(OC)[C@@H](O)[C@H](C)O2)[C@H](C)[C@@H](O[C@@H]2O[C@H](C)C[C@H](N(C)C)[C@H]2O)[C@](C)(O)C[C@@H](C)C(=O)[C@H](C)[C@@H](O)[C@]1(C)O [Erythromycin A],Pf_120h_%Growth_Rep1,[1]; [28],83.81%
same,Pf_120h_%Growth_Rep2,[1]; [29],89.66%
same,Tg_72h_%Growth_Rep1,[2]; [30],29.44%
same,Tg_72h_%Growth_Rep2,[2]; [31],44.08%
same,Pf_72h_%Growth_Rep1,[3]; [32],79.99%
same,Pf_72h_%Growth_Rep2,[3]; [33],105.49%
C=C/C(C)=C/[C@H](C)C(=O)C[C@H](O)CC1CC(=O)NC(=O)C1 [Streptimidone],Pf_120h_%Growth_Rep1,[1]; [22],72.22%
same,Pf_120h_%Growth_Rep2,[1]; [23],22.01%
same,Tg_72h_%Growth_Rep1,[2]; [24],3.03%
same,Tg_72h_%Growth_Rep2,[2]; [25],2.79%
same,Pf_72h_%Growth_Rep1,[3]; [26],21.69%
same,Pf_72h_%Growth_Rep2,[3]; [27],38.20%
